Laboratory results as given in patent US20180353486A1, “METHODS AND PHARMACEUTICAL COMPOSITIONS FOR THE TREATMENT OF DARIER DISEASE” (INSERM (Institut National de la Sante et de la Recherche …, priority 2015, published 2018).

Assays:
[1] = system: LCE3D, LCE3E, SPRR2B, SPRR2D and loricrin in Darier keratinocytes (DKs); assay: Expression of EDC differentiation genes (qRT-PCR, western blot) in Darier keratinocytes after NFATc1 inhibition; type: cell-based, human
Experimental: FIG. 5: Calcineurin inhibitors and NFATc1 inhibition decreased premature differentiation in DK. Quantitative RT-PCR and western blot were performed on mRNA and protein extracts from five DKs after 48 h Tacrolimus (a-b) or 24 h and 48 h CsA treatment (b). For (a), results are expressed as fold repression compared to non-treated DK and are the mean+/−SEM of five DK. Results are representative of two independent experiments. Asterisks represent statistical significance versus the appropriate control in each case. *P<0.05 and***P<0.001 c. Relative efficiency of small interfering RNA (siRNA)-mediated NFATc1 silencing compared to scrambled control by quantitative PCR and western blotting. Decreased expression of differentiation genes after NFATc1 specific inhibition at mRNA (d). For (d), results are expressed as fold repression compared to DKs transfected with scrambled si-RNA and are the mean+/−SEM of four DK from one experiment.
To substantiate the role of NFATc1 as an enhancer of EDC genes expression in DKs and TG-treated NKs grown in basal condition, we inhibited NFATc1 activation indirectly (using calcineurin inhibitors) and directly (using small interfering RNA-mediated NFATc1 silencing), in Darier keratinocytes.
DKs maintained in proliferating conditions were treated with 100 ng ml^−1 of Tacrolimus for 24 hours.

[2] = system: NFATc1 nuclear localization in Darier keratinocytes (DKs); assay: NFATc1 nuclear/cytoplasmic localization by western blot in Darier keratinocytes; type: cell-based, human; conditions: 100 ng/ml Tacrolimus, 24 hours
Experimental: Nuclear (N) and cytoplasmic (C) cell extracts were immunoblotted for NFATc1 and actin for normalization.
Therefore, we treated healthy keratinocytes and DKs with 10 μM of CsA or 100 ng/ml of Tacrolimus for 24 hours. Western blot experiments using a specific antibody directed against NFATc1 were performed on nuclear and cytosolic extracts.

Darier disease = conditions: few isolated cases, when retinoids were not recommended; systemic Cyclosporin, topical Tacrolimus; cited from earlier work
[3] = system: NFATc1 in normal keratinocytes (NKs); assay: NFATc1 expression and nuclear localization (qRT-PCR, western blot) in thapsigargin-treated normal keratinocytes; type: cell-based, human; conditions: 1 μM TG
Experimental: (§1) FIG. 4: TG-treated NK display the same features as DK. NKs were pretreated (TG) or not (−) with 1 μM of TG for 24 hours. a-b. […] Reversion by CsA treatment. c-d. TG-treated NK display premature differentiation markers up-regulation. SPRR2, LCE3B-E and loricrin expression is induced after 24 h (TG24) and 48 h (TG48) of TG-treatment in NK. *P<0.05. Results are from NKs from two donors (a) and one donor (b-d) and are representative of two independent experiments from two NKs.
To test whether loss of SERCA2 function is sufficient to induce NFATc1 overexpression and activation associated with premature expression of EDC genes, NKs were treated with 1 μM of thapsigargin (TG), a SERCA pumps inhibitor, for 24 and/or 48 hours to mimick SERCA2 dysfunction in DK.

[4] = system: LCE3D, LCE3E, SPRR2B, SPRR2D and loricrin in normal keratinocytes (NKs); assay: Expression of EDC differentiation genes (qRT-PCR, western blot) in thapsigargin-treated normal keratinocytes; type: cell-based, human; conditions: 1 μM TG, 24 and/or 48 hours
Experimental: as §1
In order to confirm that upregulation of differentiation genes is due to SERCA2 defect, qRT-PCR and western blot analysis were performed on TG-treated NKs.

Structure (SMILES) | Expression of LCE3D, LCE3E, SPRR2B, SPRR2D and loricrin (quantitative RT-PCR) ([1]; DKs in proliferating conditions, 100 ng ml^−1 Tacrolimus, 24 hours) | LCE3B-E, SPRR2 and loricrin protein expression (western blot) ([1]; DKs, Tacrolimus treatment) | NFATc1 localization in nuclear and cytosolic extracts (western blot) [2] | Treatment of Darier disease in patients (Darier disease) | NFATc1 expression (quantitative RT-PCR) ([3]; 24 hours) | NFATc1 protein in nuclear extracts (western blot) ([3]; vs non-treated NKs) | Expression of LCE3D, LCE3E, SPRR2B, SPRR2D and loricrin transcripts and proteins (qRT-PCR, western blot) [4]
C=CC[C@@H]1/C=C(\C)C[C@H](C)C[C@H](OC)[C@H]2O[C@@](O)(C(=O)C(=O)N3CCCC[C@H]3C(=O)O[C@H](/C(C)=C/[C@@H]3CC[C@@H](O)[C@H](OC)C3)[C@H](C)[C@@H](O)CC1=O)[C@H](C)C[C@@H]2OC [Tacrolimus] | significantly decreased | reduced LCE3B-E, SPRR2 and loricrin expression | induced NFATc1 translocation from the nucleus to the cytoplasm | successfully used | – | – | –
C/C=C(/C)C(=O)O[C@H]1C(C)=C2[C@H]([C@@H]1OC(=O)CCCCCCC)[C@@](C)(OC(C)=O)C[C@H](OC(=O)CCC)[C@@]1(O)[C@H]2OC(=O)[C@@]1(C)O [TG, thapsigargin] | – | – | – | – | increased NFATc1 expression | a higher amount of NFATc1 protein was located in the nucleus | increased expression
